Entries after “also recorded” stand apart in the source; their conditions may differ. Read-outs that look alike come from different tables or passages of the source.

This note sets out measurements from article PMC5908301, “Small molecule CXCR4 antagonists block the HIV-1 Nef/CXCR4 axis and selectively initiate the apoptotic program in breast cancer cells” (Oncotarget, 2018).

The subject of one experiment is HIV-1IIIB. Description: MAGI antiviral (entry) assay with HIV-1IIIB in HeLa-derived MAGI-CCR5/CXCR4 cells. It counts as cell-based. On the procedure:
MAGI-CCR5/CXCR4 cells are derived from HeLa-CD4-LTR-β-gal cells. The cells have been engineered to express high levels of CD4 and CXCR4 and contain one copy of the HIV-1 LTR promoter driving expression of the β-galactosidase gene upon HIV-1 Tat transactivation. On the day preceding the assay, the cells are plated at 1 × 10^4 well and incubated at 37°C overnight. Total cell and viability quantification is performed using a hemacytometer and trypan blue exclusion.
The virus used for these tests is the CXCR4-tropic strain HIV-1IIIB. […] For each assay, a pre-titered aliquot of virus is removed from the freezer (−80°C) and allowed to thaw slowly to room temperature in a biological safety cabinet.
Compounds are evaluated at one or two concentrations (e.g., for initial screening) or in dose-response at six concentrations (triplicate wells/concentration). On the day of assay setup, compound dilutions are prepared at two-times (2×) the final required concentrations. Media used for plating the cells the day before assay setup is aspirated from the plates and replaced with 50 μL of the 2× compounds, followed by the addition of 50 μL of virus, which dilutes the compounds to the final 1X concentrations. Cell control wells (cells only) and virus control wells (cells plus virus) are included on each assay plate. Identical uninfected assay plates (virus replaced with media) are prepared for parallel cytotoxicity testing.
Once HIV-1 has attached and entered the MAGI-CXCR4 cells, HIV-1 Tat transactivates the LTR dependent β-galactosidase enzyme to express higher than normal levels of β-galactosidase. […] At 48 hours or 6 days post infection, plates are aspirated, and PBS is added to each well. Gal-screen reagent (Tropix, Bedford, MA) is then added per the manufacturer's instructions for chemiluminescent detection of β-galactosidase activity and incubated at room temperature for 90 minutes. The resulting chemiluminescence signal is then read using a Microbeta Trilux luminescence reader (PerkinElmer/Wallac).
Percent inhibition of virus replication and percent cell viability at each concentration are calculated using an in-house computer program. […] Raw data for both antiviral activity and cytotoxicity with analyzed/tabulated data are provided in a printout summarizing the individual compound activity. For dose-response testing, a graphical representation of the data is also provided.

For experiment [1], the system named is Jurkat T-lymphocyte cells. The experiment is described as follows: Inhibition of Nef M1 peptide-induced mitochondrial depolarization/apoptosis in Jurkat cells (JC-1). It counts as cell-based, human. The following applies: for EC50: JC-1; for protection against M1 (control drugs): data not shown.
The next experiment has as its target T1, CXCR4 (Homo sapiens, UniProt P61073).
T1 construct: CXCR4-expressing CEM cells; endogenous in cells; host or cells: CEM cells
Description: Inhibition of SDF-1α-mediated calcium flux in CXCR4-expressing CEM cells. The following applies: for IC50: read-out: CEM SDF-1 Ca2+ Flux IC50. It counts as cell-based. On the procedure:
CXCR4- expressing CEM cells were loaded with Fluo-4, washed, and pre- incubated with the indicated concentrations of test compounds for 10 min.

Experiment [2] has as its system MDA-MB-231 cells. The experiment is described as follows: Mitochondrial depolarization of MDA-MB-231 breast cancer cells (JC-1 stain). As to conditions: for EC50 / inhibition at 100 µM: Homo sapiens; for inhibition at 100 µM: MDA-MB-231, read-out: inhibition (effect) reached in MDA-MB-231 depolarization assay; for depolarization of MDA-MB-231 cells (qualitative): at concentrations below 10 μM; for depolarization/apoptosis of MDA-MB-231 cells (qualitative): up to 100 μM; for depolarization of MDA-MB-231 cells in dose response (qualitative): Figure 10.

The test system of the next experiment is Jurkat cells. Description: M1 peptide-induced apoptosis in Jurkat cultures (TUNEL). The format is cell-based, human. On the procedure:
(A) Fluorescent microscopy images of Jurkat cultures stained via TUNEL. (B) TUNEL stained cells were counted and quantified. Fluorescent microscopy images were arranged with Adobe photoshop 6.0 software and analyzed by Image-Pro 6.3 software (Media Cybernetics, Silver Spring, MD).
(§1) Cells were grown to 80% confluence in 35 mm plates, either untreated or treated with 10 ng/ml of Nef Motif1 or CXCR4 antagonists for 24 hours. The cells were washed twice in ice-cold PBS and then fixed in 4% paraformaldehyde 1 hour. TUNEL assay for apoptosis and microscopy were done as described previously.

The test system of experiment [3] is MDA-MB-231 cells. The following applies: Figure 8B, TUNEL. The protocol: (D) MDA-MB-231 cells mock treated were analyzed via TUNEL.
as §1

Where [4] appears, read: Homo sapiens, Jurkat, 24 h, concentration inhibiting M1-induced mitochondrial depolarization by 50%, 10 ng/mL M1, 24 h, read-out: Jurkat M1 Inhibition EC50.
The mark [5] stands for this setting: MDA-MB-231, 24 h, read-out: MDA-MB-231 Depolarization EC50.
The mark [6] stands for this setting: Human immunodeficiency virus 1, MAGI, read-out: HIV-1IIIB MAGI IC50.
Setting [7] is: Human immunodeficiency virus 1, MAGI-CCR5/CXCR4 cells, β-galactosidase reporter, read-out: HeLa HIV-1IIIB MAGI IC50.
The mark [8] stands for this setting: Homo sapiens, Jurkat, read-out: EC50 against M1-mediated apoptosis in Jurkat cells.
Where [9] appears, read: MDA-MB-231, read-out: EC50 depolarization/apoptosis of MDA-MB-231 cells.

T1 sequence (P61073 whole entry): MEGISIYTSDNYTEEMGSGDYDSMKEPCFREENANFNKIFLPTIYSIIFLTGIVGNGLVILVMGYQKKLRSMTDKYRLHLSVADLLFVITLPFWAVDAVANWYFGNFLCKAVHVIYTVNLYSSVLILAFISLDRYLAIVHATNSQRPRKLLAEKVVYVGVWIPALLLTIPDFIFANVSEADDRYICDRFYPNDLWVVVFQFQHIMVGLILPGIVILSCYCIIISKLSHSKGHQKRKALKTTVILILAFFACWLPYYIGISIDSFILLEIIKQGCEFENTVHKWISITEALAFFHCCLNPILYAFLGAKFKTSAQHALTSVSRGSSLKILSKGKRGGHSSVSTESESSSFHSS

With `NC(=O)NCCCCN(C[C@H]1Cc2ccccc2CN1)[C@H]1CCCc2cccnc21` [Compound 1], the IC50 in the experiment on HIV-1IIIB (Human immunodeficiency virus 1, MAGI, read-out: HeLa HIV-1IIIB MAGI IC50) was found to be 210 nM; on CXCR4 it was 4 nM. Also, the EC50 in experiment [1] (setting [4]) was determined as 0.3 nM; with MDA-MB-231 cells [2] (setting [5]), 0.8 nM.
As for `CN(C[C@@H]1CN(Cc2ccccc2)CCN1)[C@H]1CCCc2cccnc21` [Compound 6], the IC50 in the experiment on HIV-1IIIB (setting [6]) was less than 100 nM; in the experiment on HIV-1IIIB (setting [7]) it was 850 nM; on CXCR4 it was 3300 nM. For the same compound, the EC50 was 53 nM in experiment [1] (setting [8]) and 10000 nM with MDA-MB-231 cells [2] (setting [5]). For the same compound, the inhibition at 100 µM with MDA-MB-231 cells [2] was not above 65%. Also, in the experiment on MDA-MB-231 cells [2], the “depolarization of MDA-MB-231 cells (qualitative)” value was “failed to depolarize”.
In the case of “TNAACAWLEAQ [Compound M1, pro-apoptotic peptide, residues 50–60 of HIV-1 Nef]”, the “apoptosis induction in Jurkat cultures by peptide” value in the experiment with Jurkat cells (10 ng/mL, 24 h, no antagonist) was “displayed apoptosis”.
As for `CN(C[C@@H]1CN(Cc2ccc(C(F)(F)F)cc2)CCN1)[C@H]1CCCc2cccnc21` [Compound 7], the IC50 is 8010 nM with HIV-1IIIB (setting [7]) and more than 50000 nM on CXCR4. The EC50 came to 12700 nM in experiment [1] (setting [4]) and 85000 nM in the experiment with MDA-MB-231 cells [2] (setting [5]).
In the case of `NCCCCN(C[C@H]1Cc2ccccc2CN1Cc1cnccn1)[C@H]1CCCc2cccnc21` [Compound 3], the half-inhibitory concentration (IC50) with HIV-1IIIB (setting [7]) stood at 790 nM; on CXCR4, 110 nM. Besides, the EC50 came out at 3.5 nM in experiment [1] (setting [4]) and 15 nM with MDA-MB-231 cells [2] (setting [5]). Moreover, in the experiment with MDA-MB-231 cells [2], the inhibition at 100 µM is not above 65%.
As to `c1cnc(NCc2ccc(CNc3ncccn3)cc2)nc1` [MSX-122, reference compound], the IC50 with HIV-1IIIB (setting [7]) and on CXCR4 was more than 10000 nM throughout. Further, the EC50 was 12000 nM in experiment [1] (setting [4]), 81 nM in the experiment on MDA-MB-231 cells [2] (setting [5]) and less than 100 nM in the experiment with MDA-MB-231 cells [2] (setting [9]). For the same compound, the “CXCR4 functional response in calcium flux assay (qualitative)” value on CXCR4 is “no measurable CXCR4 functional response”.
In the case of `NCCCCN(C[C@H]1Cc2ccccc2CN1Cc1ccncn1)[C@H]1CCCc2cccnc21` [Compound 4], the IC50 with HIV-1IIIB (setting [6]) was less than 100 nM; in the experiment with HIV-1IIIB (setting [7]) it was 3 nM; on CXCR4, 7700 nM. Besides, the values for the EC50 (in experiment [1] (setting [8]); in the experiment on MDA-MB-231 cells [2] (setting [5])) were 52 nM and more than 100000 nM, respectively. Further, in the experiment on MDA-MB-231 cells [2], the inhibition at 100 µM is approximately 20%. For the same compound, the “depolarization of MDA-MB-231 cells (qualitative)” value in the experiment on MDA-MB-231 cells [2] was “failed to depolarize”. For the same compound, the “depolarization/apoptosis of MDA-MB-231 cells (qualitative)” value in the experiment on MDA-MB-231 cells [2] was “no apoptosis; also recorded: failed to depolarize”; in the experiment on MDA-MB-231 cells [2] (listed as compound 4), “no effect”.
On to `NCCCN(C[C@@H]1CN(Cc2ccccc2)CCN1)[C@H]1CCCc2cccnc21` [Compound 5], for which the IC50 with HIV-1IIIB (setting [7]) worked out at 30 nM; on CXCR4, 190 nM. Besides, the EC50 in experiment [1] (setting [4]) turned out to be 10 nM; in the experiment on MDA-MB-231 cells [2] (setting [5]), 0.39 nM.
For `c1ccc(Cc2cn[nH]c2C2CCN(Cc3ccncc3)CC2)cc1` [Compound 8], the IC50 in the experiment with HIV-1IIIB (setting [7]) came to 780 nM. Moreover, the values for the EC50 (in experiment [1] (setting [4]); in the experiment on MDA-MB-231 cells [2] (setting [5]); with MDA-MB-231 cells [2] (setting [9])) were 1100 nM, 28 nM and less than 100 nM, respectively. Further, the “CXCR4 functional response in calcium flux assay (qualitative)” value on CXCR4 is listed as “no measurable CXCR4 functional response”.
For the compound `Cc1cn([C@H]2C[C@H](N=[N+]=[N-])[C@@H](CO)O2)c(=O)[nH]c1=O` [AZT, reference compound], the “protection against M1 (control drugs)” value in experiment [1] is “did not confer protection”. Also, the “depolarization of MDA-MB-231 cells in dose response (qualitative)” value with MDA-MB-231 cells [2] is recorded as “No depolarization”.
The corresponding values for Maraviroc [reference compound] are “did not confer protection” and “No depolarization”.
As for `c1cc(CN2CCCNCCNCCCNCC2)ccc1CN1CCCNCCNCCCNCC1` [AMD3100, reference compound], the IC50 in the experiment on HIV-1IIIB (setting [6]) was 2 to 5 nM; in the experiment with HIV-1IIIB (setting [7]), 2 nM. For the same compound, the EC50 in experiment [1] (setting [8]) amounted to 473 nM; in the experiment on MDA-MB-231 cells [2] (setting [5]), 123 nM. Moreover, in the experiment on MDA-MB-231 cells [3], the “Apoptosis (%)” value was determined as 89.5%. In addition, in the experiment with MDA-MB-231 cells [2] (Figure 8A, JC-1 staining), the “Depolarization (%)” value is listed as 91%. For the same compound, the “depolarization of MDA-MB-231 cells in dose response (qualitative)” value in the experiment with MDA-MB-231 cells [2] is “significant depolarization”.
In the case of `CC1(C)CN2C(CSC(=NC3CCCCC3)NC3CCCCC3)=CSC2=N1` [IT1t, reference compound], the IC50 in the experiment on HIV-1IIIB (setting [7]) is 10 nM. In addition, the EC50 was less than 100 nM in experiment [1] (setting [8]); 0.7 nM in experiment [1] (concentration inhibiting M1-induced mitochondrial depolarization by 50%, 10 ng/mL M1, 24 h, listed as It1t, read-out: Jurkat M1 Inhibition EC50); not above 1000 nM in experiment [1] (concentration inhibiting M1-induced mitochondrial depolarization by 50%, 10 ng/mL M1, 24 h, read-out: Jurkat M1 Inhibition EC50); 6.25 nM with MDA-MB-231 cells [2] (setting [5]). In addition, the “protection from M1-mediated apoptosis” value in the experiment on Jurkat cells (prophylactic 50 nM, then M1) is given as “complete protection”.
With `c1ccc(CNCCCCN(C[C@H]2Cc3ccccc3CN2)[C@H]2CCCc3cccnc32)nc1` [Compound 2], the “Apoptosis (%)” value in the experiment on MDA-MB-231 cells [3] came out at 93%.
